Data reported in ChEMBL document CHEMBL1142627, “Ribofuranosyl triazolone: a natural product herbicide with activity on adenylosuccinate synthetase following phosphorylation” (J Nat Prod, 2000).

Columns and labels:
Oryctolagus cuniculus = species: Oryctolagus cuniculus; assay: (§1) Inhibition of rabbit muscle Adenylosuccinate synthase assessed as adenylosuccinate formation; conditions: TDE = time-dependent effect
BMS = assay: (§2) Inhibition of Zea mays BMS cells Adenylosuccinate synthase assessed as adenylosuccinate formation; type: cell-based; conditions: TDE = time-dependent effect
[1] = as §1; parameters: species or system Oryctolagus cuniculus; conditions: read-out: I50
[2] = as §2; type: cell-based; conditions: read-out: I50

Structure (SMILES)	Activity (Oryctolagus cuniculus)	Activity (BMS)	IC50 [1]	IC50 [2]
O=C1NC(=O)[C@@]2(N1)O[C@H](COP(=O)(O)O)[C@@H](O)[C@H]2O	tde	tde		
O=c1[nH]ncn1[C@@H]1O[C@H](COP(=O)(O)O)[C@@H](O)[C@H]1O [PHOSPHORIBOFURANOSYL TRIAZOLONE]	tde		180 nM	980 nM
